Data as given in US9902725B2, “Heterocyclic derivatives as RORgamma modulators” (GENFIT, priority 2014, dated 2018).

Experiments:
[1] = target: T1, RORγt ligand-binding domain (RORγt-LBD) (Homo sapiens, UniProt P51449); assay: Time-resolved FRET (TR-FRET) RORγt coactivator assay; type: biochemical; details: GST-RORγ-LBD, biotinylated RIP140 peptide, coactivator displacement
T1 construct: 20 nM recombinantly expressed RORγ-LBD fused to GST
T1 sequence (P51449 269-508 limits assumed): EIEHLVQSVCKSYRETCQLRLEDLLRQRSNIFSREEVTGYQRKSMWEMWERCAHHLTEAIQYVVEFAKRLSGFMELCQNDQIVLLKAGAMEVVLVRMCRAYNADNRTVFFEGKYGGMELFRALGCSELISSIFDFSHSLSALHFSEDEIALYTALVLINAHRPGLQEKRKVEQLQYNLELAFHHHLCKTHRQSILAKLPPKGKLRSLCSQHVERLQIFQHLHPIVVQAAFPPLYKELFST

human RORγt = target: T2, human RORγt (Homo sapiens, UniProt P51449); assay: IL-17 secretion from EL4 murine lymphoma overexpressing human RORγt; type: cell-based; set-up: expressed in transfected cells; host or cells: EL-4 murine lymphoma; details: IL-17 secretion inhibition, PMA and ionomycin stimulation, 24 h
T2 sequence (P51449 1-497 isoform P51449-2): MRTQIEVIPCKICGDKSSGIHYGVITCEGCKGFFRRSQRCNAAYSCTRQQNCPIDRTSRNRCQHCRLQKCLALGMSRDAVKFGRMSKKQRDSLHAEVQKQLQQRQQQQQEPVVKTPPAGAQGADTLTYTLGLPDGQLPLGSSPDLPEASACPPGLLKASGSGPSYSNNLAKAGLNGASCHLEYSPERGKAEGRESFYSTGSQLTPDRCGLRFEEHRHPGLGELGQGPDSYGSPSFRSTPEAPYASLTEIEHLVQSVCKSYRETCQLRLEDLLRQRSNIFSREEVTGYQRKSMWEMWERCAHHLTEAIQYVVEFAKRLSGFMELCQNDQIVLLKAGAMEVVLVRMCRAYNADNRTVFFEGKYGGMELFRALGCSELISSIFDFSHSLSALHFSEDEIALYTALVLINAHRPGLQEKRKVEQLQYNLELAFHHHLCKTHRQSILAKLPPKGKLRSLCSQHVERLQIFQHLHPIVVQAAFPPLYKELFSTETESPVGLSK
Description: Murine EL-4 lymphoma cell line overexpressing human RORγt was used in this functional assay to assess compound ability to inhibit IL-17 cytokine secretion.
EL-4 cells are maintained in a standard culture medium RPMI supplemented with 10% fetal calf serum, 1% sodium pyruvate, 1% essential amino acids and 1% antibiotics at 37° C. in a humidified atmosphere of 5% CO2 and 95% air. Culture medium was changed every 2 days. EL4 cells were transfected with a plasmid encoding hRORγt (sequence identical to published sequence NM 001001523). […] Briefly, 1 μg of DNA/1 million cells was served to transfect EL-4 cells. Cell/DNA suspension was transferred into certified cuvette and the electroporation of RORγt plasmid was carried out using appropriate Nucleofector® program.
Cells were seeded in 96 well plates at a density of 150000 cells/well then treated with compounds of this invention at indicated concentrations and incubated for 24 hours at 37° C. in a humidified atmosphere of 5% CO2 and 95% air. EL-4 cells were pretreated with test compounds (RORγ modulators) and stimulated with PMA (10 ng/mL) and ionomycin (1 μM final concentration) in the presence of test compound concentrations for additional 24 h at 37° C. in a humidified atmosphere of 5% CO2 and 95% air. Subsequently, supernatants were collected (after centrifugation at 300 g for 10 minutes) to determine the concentrations of IL-17 by HTRF (CisBio, France) or ELISA (R&D Systems Europe) according to the manufacturer's protocols.

Row | SMILES | IC50 [1] | IC50 (human RORγt)
1 | CCOC(=O)CCCCc1c[nH]c2ccc(CC(=O)NC(c3ccccc3)c3ccccc3N3CCCCC3)cc12 (stereo not drawn) [Cpd. 216, ethyl 5-{5-[({phenyl[2-(piperidin-1-yl)phenyl]methyl}carbamoyl)methyl]-1H-indol-3-yl}pentanoate] | < 1000 nM | 1000 to 10000 nM
2 | CC(C)(C)OC(=O)CCc1c[nH]c2ccc(NC(=O)NC(c3ccccc3)c3ccccc3N3CCCCC3)cc12 (stereo not drawn) [compound 55, tert-butyl 3-{5-[({phenyl[2-(piperidin-1-yl)phenyl]methyl}carbamoyl)amino]-1H-indol-3-yl}propanoate] | 10000 to 30000 nM | 1000 to 10000 nM
3 | O=C(O)CCc1c[nH]c2ccc(CC(=O)NC(c3ccccc3)c3cc(Cl)ccc3N3CCCCC3)cc12 (stereo not drawn) [compound 62, 3-{5-[({[5-chloro-2-(piperidin-1-yl)phenyl](phenyl)methyl}carbamoyl)methyl]-1H-indol-3-yl}propanoic acid] | < 1000 nM | 1000 to 10000 nM
4 | Cc1ccc(C(NC(=O)Cc2ccc3[nH]cc(CC(=O)O)c3c2)c2ccccc2)c(N2CCCC2)c1 (stereo not drawn) [compound 65, 2-{5-[({[4-methyl-2-(pyrrolidin-1-yl)phenyl](phenyl)methyl}carbamoyl)methyl]-1H-indol-3-yl}acetic acid] | < 1000 nM | 1000 to 10000 nM
5 | Cc1ccc(C(NC(=O)Cc2ccc3[nH]cc(CC(=O)O)c3c2)c2ccccc2)c(N2CCCCC2)c1 (stereo not drawn) [compound 87, 2-{5-[({[4-methyl-2-(piperidin-1-yl)phenyl](phenyl)methyl}carbamoyl)methyl]-1H-indol-3-yl}acetic acid] | < 1000 nM | 1000 to 10000 nM

Further lines, results first:

Row | IC50 [1] | IC50 (human RORγt) | SMILES
6 | < 1000 nM | 1000 to 10000 nM | COc1ccc(C(NC(=O)Cc2ccc3[nH]cc(CCC(=O)OC(C)(C)C)c3c2)c2ccccc2)c(N2CCCCC2)c1 (stereo not drawn) [Cpd. 110, tert-butyl 3-{5-[({[4-methoxy-2-(piperidin-1-yl)phenyl](phenyl)methyl}carbamoyl)methyl]-1H-indol-3-yl}propanoate]
7 | < 1000 nM | 1000 to 10000 nM | CCNc1cc(C)ccc1C(NC(=O)Cc1ccc2[nH]cc(CCC(=O)OC(C)(C)C)c2c1)c1ccccc1 (stereo not drawn) [Cpd. 119, tert-butyl 3-{5-[({[2-(ethylamino)-4-methylphenyl](phenyl)methyl}carbamoyl)methyl]-1H-indol-3-yl}propanoate]
8 | < 1000 nM | 1000 to 10000 nM | Cc1ccc(C(NC(=O)Cc2ccc3[nH]cc(CCC(=O)OC(C)(C)C)c3c2)c2ccccc2)c(NC(C)C)c1 (stereo not drawn) [Cpd. 125, tert-butyl 3-(5-{[({4-methyl-2-[(propan-2-yl)amino]phenyl}(phenyl)methyl)carbamoyl]methyl}-1H-indol-3-yl)propanoate]
9 | < 1000 nM | 1000 to 10000 nM | COc1ccc(C(NC(=O)Cc2ccc3[nH]cc(CCC(=O)OC(C)(C)C)c3c2)c2ccccc2)c(N2CCCCCC2)c1 (stereo not drawn) [Cpd. 141, tert-butyl 3-{5-[({[2-(azepan-1-yl)-4-methoxyphenyl](phenyl)methyl}carbamoyl)methyl]-1H-indol-3-yl}propanoate]
10 | < 1000 nM | 1000 to 10000 nM | Cc1ccc(C(NC(=O)Cc2ccc3[nH]cc(CCC(=O)OC(C)(C)C)c3c2)c2ccccc2)c(OC(C)C)c1 (stereo not drawn) [Cpd. 145, tert-butyl 3-{5-[({[4-methyl-2-(propan-2-yloxy)phenyl](phenyl)methyl}carbamoyl)methyl]-1H-indol-3-yl}propanoate]
11 | < 1000 nM | 1000 to 10000 nM | CCOC(=O)CCc1n[nH]c2ccc(CC(=O)NC(c3ccccc3)c3ccc(C)cc3OC(C)C)cc12 (stereo not drawn) [Cpd. 159, ethyl 3-{5-[({[4-methyl-2-(propan-2-yloxy)phenyl](phenyl)methyl}carbamoyl)methyl]-1H-indazol-3-yl}propanoate]
12 | < 1000 nM | 1000 to 10000 nM | CCOC(=O)CCCc1c[nH]c2ccc(CC(=O)NC(c3ccccc3)c3ccccc3N3CCCCC3)cc12 (stereo not drawn) [Cpd. 211, ethyl 4-{5-[({phenyl[2-(piperidin-1-yl)phenyl]methyl}carbamoyl)methyl]-1H-indol-3-yl}butanoate]
